Measured values from patent publication US12258327B2, “5-membered heteroaryl-containing aminopyridine compounds as EGFR inhibitors” (YUHAN CORPORATION, priority 2021, dated 2025).
Read-outs that look alike come from different tables or passages of the source.

Columns and labels:
EGFR L858R/C797S = EGFR L858R/C797S (Homo sapiens, UniProt P00533, C797S/L858R); experiment: Biochemical EGFR kinase assay (Lance Ultra TR-FRET), double mutant L858R/C797S
How it was run: (§1)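 Enzyme reactions lasted 1 hour at room temperature with test compounds between 0.003 and 10 μM, followed by 10 mM EDTA quench.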

EGFR del19/T790M/C797S = EGFR del19/T790M/C797S (Homo sapiens, UniProt P00533, C797S/DEL746-750/T790M); experiment: Biochemical EGFR kinase assay (Lance Ultra TR-FRET), triple mutant del19/T790M/C797S
Sequence of EGFR del19/T790M/C797S (P00533 with tags, fused parts or gaps DEL746-750/T790M/C797S): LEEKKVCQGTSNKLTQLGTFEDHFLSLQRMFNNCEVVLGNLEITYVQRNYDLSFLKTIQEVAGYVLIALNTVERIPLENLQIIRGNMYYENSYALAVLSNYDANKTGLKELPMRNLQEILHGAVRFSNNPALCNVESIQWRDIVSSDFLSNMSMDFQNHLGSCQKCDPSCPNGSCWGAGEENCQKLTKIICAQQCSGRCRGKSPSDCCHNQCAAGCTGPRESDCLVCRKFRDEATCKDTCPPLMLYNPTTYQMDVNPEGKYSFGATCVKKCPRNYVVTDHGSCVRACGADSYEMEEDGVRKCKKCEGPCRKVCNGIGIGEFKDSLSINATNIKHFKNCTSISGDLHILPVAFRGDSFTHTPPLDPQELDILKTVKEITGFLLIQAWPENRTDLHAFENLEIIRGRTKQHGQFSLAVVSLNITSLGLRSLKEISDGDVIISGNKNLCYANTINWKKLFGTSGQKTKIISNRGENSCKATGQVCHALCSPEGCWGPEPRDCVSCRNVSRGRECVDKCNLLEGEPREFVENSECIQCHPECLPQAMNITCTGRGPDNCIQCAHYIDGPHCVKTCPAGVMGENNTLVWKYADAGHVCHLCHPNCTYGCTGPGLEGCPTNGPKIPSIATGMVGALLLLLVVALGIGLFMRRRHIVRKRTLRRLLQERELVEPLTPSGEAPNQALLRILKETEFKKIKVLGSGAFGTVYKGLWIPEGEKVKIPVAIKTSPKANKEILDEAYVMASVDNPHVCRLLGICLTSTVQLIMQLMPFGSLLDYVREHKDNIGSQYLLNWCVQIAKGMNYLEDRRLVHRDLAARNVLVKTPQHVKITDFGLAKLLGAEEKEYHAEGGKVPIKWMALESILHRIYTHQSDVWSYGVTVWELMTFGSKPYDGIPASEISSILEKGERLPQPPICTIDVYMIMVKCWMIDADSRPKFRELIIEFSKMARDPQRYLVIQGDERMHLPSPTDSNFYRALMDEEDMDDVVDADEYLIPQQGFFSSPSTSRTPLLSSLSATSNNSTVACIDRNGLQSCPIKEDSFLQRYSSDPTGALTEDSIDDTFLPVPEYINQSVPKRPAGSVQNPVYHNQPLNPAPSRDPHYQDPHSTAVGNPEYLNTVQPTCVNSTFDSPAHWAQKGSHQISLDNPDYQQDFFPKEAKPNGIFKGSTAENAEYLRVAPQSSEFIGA
How it was run: as §1

EGFR L858R/T790M/C797S = EGFR L858R/T790M/C797S (Homo sapiens, UniProt P00533, C797S/L858R/T790M); experiment: Biochemical EGFR kinase assay (Lance Ultra TR-FRET), triple mutant L858R/T790M/C797S
Sequence of EGFR L858R/T790M/C797S (P00533 25-1210 T790M/C797S/L858R): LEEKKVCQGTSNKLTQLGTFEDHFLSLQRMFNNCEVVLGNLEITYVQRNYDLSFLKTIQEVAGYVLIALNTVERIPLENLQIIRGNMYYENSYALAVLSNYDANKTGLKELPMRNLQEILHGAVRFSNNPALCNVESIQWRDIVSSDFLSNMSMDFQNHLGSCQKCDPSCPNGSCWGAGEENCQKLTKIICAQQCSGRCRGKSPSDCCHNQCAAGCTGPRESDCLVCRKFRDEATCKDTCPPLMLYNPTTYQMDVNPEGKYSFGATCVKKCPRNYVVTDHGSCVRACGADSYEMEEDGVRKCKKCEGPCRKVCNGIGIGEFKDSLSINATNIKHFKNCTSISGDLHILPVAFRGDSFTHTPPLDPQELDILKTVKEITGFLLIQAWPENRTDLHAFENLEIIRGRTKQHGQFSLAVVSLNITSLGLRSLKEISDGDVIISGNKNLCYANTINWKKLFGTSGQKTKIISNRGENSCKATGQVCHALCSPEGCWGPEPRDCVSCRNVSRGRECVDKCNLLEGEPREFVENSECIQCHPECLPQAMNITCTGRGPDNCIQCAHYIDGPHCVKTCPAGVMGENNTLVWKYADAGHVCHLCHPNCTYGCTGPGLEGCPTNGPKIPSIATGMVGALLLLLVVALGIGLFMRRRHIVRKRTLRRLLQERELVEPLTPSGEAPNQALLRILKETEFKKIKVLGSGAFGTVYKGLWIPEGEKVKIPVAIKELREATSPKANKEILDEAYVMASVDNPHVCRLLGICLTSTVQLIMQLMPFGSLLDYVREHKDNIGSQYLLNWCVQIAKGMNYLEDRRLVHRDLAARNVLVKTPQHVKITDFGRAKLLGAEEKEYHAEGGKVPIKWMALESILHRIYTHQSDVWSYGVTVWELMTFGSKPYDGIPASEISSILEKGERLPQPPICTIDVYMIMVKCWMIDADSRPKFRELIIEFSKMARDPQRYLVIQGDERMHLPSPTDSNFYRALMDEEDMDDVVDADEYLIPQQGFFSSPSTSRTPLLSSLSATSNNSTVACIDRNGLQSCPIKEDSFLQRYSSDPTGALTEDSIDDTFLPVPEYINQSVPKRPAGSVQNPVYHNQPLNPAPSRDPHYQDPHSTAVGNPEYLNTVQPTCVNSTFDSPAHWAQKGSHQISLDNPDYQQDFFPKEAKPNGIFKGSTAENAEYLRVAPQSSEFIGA
How it was run: as §1

EGFR del19/C797S = EGFR del19/C797S (Homo sapiens, UniProt P00533, C797S/DEL746-750); experiment: Biochemical EGFR kinase assay (Lance Ultra TR-FRET), double mutant del19/C797S
Sequence of EGFR del19/C797S (P00533 with tags, fused parts or gaps DEL746-750/C797S): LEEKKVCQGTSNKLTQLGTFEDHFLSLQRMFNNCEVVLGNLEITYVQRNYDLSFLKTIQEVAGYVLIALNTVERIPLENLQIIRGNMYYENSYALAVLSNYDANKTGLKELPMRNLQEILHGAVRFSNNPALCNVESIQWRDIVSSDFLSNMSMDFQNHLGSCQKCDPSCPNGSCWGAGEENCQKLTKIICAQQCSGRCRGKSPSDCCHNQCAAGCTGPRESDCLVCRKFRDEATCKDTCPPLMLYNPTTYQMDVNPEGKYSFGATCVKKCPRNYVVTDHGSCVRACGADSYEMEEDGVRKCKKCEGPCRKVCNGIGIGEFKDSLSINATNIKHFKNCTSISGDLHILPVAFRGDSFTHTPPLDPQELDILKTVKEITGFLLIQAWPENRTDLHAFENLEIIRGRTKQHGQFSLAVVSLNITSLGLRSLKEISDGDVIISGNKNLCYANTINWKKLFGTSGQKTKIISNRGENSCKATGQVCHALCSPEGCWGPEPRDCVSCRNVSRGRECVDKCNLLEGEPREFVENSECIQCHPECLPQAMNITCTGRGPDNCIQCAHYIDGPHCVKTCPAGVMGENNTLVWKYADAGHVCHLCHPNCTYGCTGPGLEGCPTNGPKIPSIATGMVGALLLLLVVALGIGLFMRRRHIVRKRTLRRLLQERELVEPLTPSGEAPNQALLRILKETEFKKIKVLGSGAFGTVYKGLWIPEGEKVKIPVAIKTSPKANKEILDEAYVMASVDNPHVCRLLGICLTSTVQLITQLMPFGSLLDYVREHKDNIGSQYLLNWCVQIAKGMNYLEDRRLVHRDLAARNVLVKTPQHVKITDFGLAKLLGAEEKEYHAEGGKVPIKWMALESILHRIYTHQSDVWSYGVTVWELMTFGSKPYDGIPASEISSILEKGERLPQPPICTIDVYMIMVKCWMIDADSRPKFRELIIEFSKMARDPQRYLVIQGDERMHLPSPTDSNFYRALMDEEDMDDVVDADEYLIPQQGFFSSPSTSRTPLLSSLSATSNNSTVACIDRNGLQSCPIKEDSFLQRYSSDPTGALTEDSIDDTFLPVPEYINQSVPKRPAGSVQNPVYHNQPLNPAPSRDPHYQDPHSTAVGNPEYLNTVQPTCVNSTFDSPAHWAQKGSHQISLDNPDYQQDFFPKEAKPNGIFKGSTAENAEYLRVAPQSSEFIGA
How it was run: as §1

EGFR wildtype (WT) = EGFR wildtype (WT) (Homo sapiens, UniProt P00533); experiment: Biochemical EGFR kinase assay (Lance Ultra TR-FRET), wildtype
Sequence of EGFR wildtype (WT) (P00533 25-1210): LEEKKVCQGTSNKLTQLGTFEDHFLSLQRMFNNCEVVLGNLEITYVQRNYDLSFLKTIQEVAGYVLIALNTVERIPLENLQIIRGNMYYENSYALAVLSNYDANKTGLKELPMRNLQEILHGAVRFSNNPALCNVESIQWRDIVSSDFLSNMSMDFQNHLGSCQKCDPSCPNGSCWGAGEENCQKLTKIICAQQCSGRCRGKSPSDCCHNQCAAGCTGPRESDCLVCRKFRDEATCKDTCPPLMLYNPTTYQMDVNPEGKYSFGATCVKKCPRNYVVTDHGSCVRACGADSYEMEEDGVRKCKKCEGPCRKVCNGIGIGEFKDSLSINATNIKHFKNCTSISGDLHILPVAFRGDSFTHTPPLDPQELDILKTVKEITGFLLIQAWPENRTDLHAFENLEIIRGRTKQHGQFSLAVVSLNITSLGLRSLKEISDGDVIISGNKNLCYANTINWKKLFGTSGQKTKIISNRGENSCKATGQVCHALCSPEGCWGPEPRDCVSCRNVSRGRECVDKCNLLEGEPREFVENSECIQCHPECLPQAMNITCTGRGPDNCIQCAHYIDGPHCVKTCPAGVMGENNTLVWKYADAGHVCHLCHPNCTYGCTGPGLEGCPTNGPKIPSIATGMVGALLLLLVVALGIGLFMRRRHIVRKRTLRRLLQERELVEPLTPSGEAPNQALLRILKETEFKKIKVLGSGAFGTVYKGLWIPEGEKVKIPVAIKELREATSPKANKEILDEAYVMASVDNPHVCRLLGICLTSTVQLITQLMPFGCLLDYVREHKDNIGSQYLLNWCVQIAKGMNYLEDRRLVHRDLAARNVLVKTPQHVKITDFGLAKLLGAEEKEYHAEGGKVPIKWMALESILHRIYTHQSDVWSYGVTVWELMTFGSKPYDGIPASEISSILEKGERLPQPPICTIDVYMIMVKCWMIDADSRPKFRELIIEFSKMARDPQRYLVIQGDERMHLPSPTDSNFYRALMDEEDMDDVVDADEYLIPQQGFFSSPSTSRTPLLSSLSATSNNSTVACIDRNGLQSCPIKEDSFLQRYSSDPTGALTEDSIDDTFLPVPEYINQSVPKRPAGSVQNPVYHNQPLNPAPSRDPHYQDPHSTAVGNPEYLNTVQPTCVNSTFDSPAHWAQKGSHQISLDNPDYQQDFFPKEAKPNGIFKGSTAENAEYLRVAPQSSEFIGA
How it was run: as §1

[1] = IC50 L858R/C797S (nM) 100 μM ATP, 100 μM ATP
[2] = IC50 del19/T790M/C797S (nM) 100 μM ATP, 100 μM ATP
[3] = IC50 L858R/T790M/C797S (nM) 100 μM ATP, 100 μM ATP
[4] = IC50 del19/C797S (nM) 100 μM ATP, 100 μM ATP
[5] = IC50 WT (nM) 100 μM ATP, 100 μM ATP
[6] = Km ATP, read-out: IC50 L858R/C797S (nM) Km ATP
[7] = Km ATP, read-out: IC50 del19/T790M/C797S (nM) Km ATP
[8] = Km ATP, read-out: IC50 L858R/T790M/C797S (nM) Km ATP
[9] = Km ATP, read-out: IC50 del19/C797S (nM) Km ATP
[10] = Km ATP, read-out: IC50 WT (nM) Km ATP

Structure (SMILES) | IC50 (EGFR L858R/C797S; [1]) [nM] | IC50 (EGFR del19/T790M/C797S; [2]) [nM] | IC50 (EGFR L858R/T790M/C797S; [3]) [nM] | IC50 (EGFR del19/C797S; [4]) [nM] | IC50 (EGFR wildtype (WT); [5]) [nM] | IC50 (EGFR L858R/C797S; [6]) [nM] | IC50 (EGFR del19/T790M/C797S; [7]) [nM] | IC50 (EGFR L858R/T790M/C797S; [8]) [nM] | IC50 (EGFR del19/C797S; [9]) [nM] | IC50 (EGFR wildtype (WT); [10]) [nM] | IC50 (EGFR del19/T790M/C797S; read-out: IC50 del19/T790M/C797S (nM) 100 μM ATP, 100 μM ATP) [nM] | IC50 (EGFR L858R/T790M/C797S; read-out: IC50 L858R/T790M/C797S (nM) 100 μM ATP, 100 μM ATP) [nM] | IC50 (EGFR del19/C797S; read-out: IC50 del19/C797S (nM) 100 μM ATP, 100 μM ATP) [nM] | IC50 (EGFR wildtype (WT); read-out: IC50 WT (nM) 100 μM ATP, 100 μM ATP) [nM]
CNC1CCC(Nc2cc(Nc3ccnc(-c4cnn(S(=O)(=O)C5CC5)c4)n3)ncc2-c2ccn(C(F)F)n2)CC1 (stereo not shown) [Example 16, N^2-(2-(1-(Cyclopropylsulfonyl)-1H-pyrazol-4-yl)pyrimidin-4-yl)-5-(1-(difluoromethyl)-1H-pyrazol-3-yl)-N^4-((1s,4s)-4-(methylamino)cyclohexyl)pyridine-2,4-diamine] | 2.1 | 0.3 | 0.3 | 2 | 3390 |  |  |  |  |  |  |  |  | 
O=S(=O)(C1CC1)n1cc(-c2nccc(Nc3cc(N[C@H]4CCCNCC4)c(-c4ccn(C(F)F)n4)cn3)n2)cn1 [Example 17, (S)-N^4-(Azepan-4-yl)-N^2-(2-(1-(cyclopropylsulfonyl)-1H-pyrazol-4-yl)pyrimidin-4-yl)-5-(1-(difluoromethyl)-1H-pyrazol-3-yl)pyridine-2,4-diamine] | 691 | 1 | 2.6 | 19.1 | > 10000 |  |  |  |  |  |  |  |  | 
O=S(=O)(C1CC1)n1cc(-c2nccc(Nc3cc(N[C@H]4CC[C@@H](CO)CC4)c(-c4ccn(C(F)F)n4)cn3)n2)cn1 [Example 18, ((1s,4s)-4-((2-((2-(1-(Cyclopropylsulfonyl)-1H-pyrazol-4-yl)pyrimidin-4-yl)amino)-5-(1-(difluoromethyl)-1H-pyrazol-3-yl)pyridin-4-yl)amino)cyclohexyl)methanol] | 13 | 0.4 | 0.6 | 1.4 | > 10000 | 1.9 | 0.3 | 0.2 | 0.9 | 3 |  |  |  | 
O=C1CC[C@]2(CC[C@H](Nc3cc(Nc4ccnc(-c5cnn(S(=O)(=O)C6CC6)c5)n4)ncc3-c3ccn(C(F)F)n3)CC2)N1 [Example 19, (5s,8s)-8-((2-((2-(1-(Cyclopropylsulfonyl)-1H-pyrazol-4-yl)pyrimidin-4-yl)amino)-5-(1-(difluoromethyl)-1H-pyrazol-3-yl)pyridin-4-yl)amino)-1-azaspiro[4.5]decan-2-one] | 3.5 | 0.3 | 0.5 | 0.7 | > 10000 | 0.7 | 0.3 | 0.1 | 0.5 | 10 |  |  |  | 
O=S(=O)(C1CC1)n1cc(-c2nccc(Nc3cc(N[C@H]4CC[C@H](O)C4)c(-c4ccn(C(F)F)n4)cn3)n2)cn1 [Example 20, (1S,3S)-3-((2-((2-(1-(Cyclopropylsulfonyl)-1H-pyrazol-4-yl)pyrimidin-4-yl)amino)-5-(1-(difluoromethyl)-1H-pyrazol-3-yl)pyridin-4-yl)amino)cyclopentan-1-ol] | 51.9 | 0.9 |  | 3.4 | > 10000 | 3.1 | 0.3 | 0.2 | 1 | 21.1 |  |  |  | 
O=S(=O)(C1CC1)n1cc(-c2nccc(Nc3cc(N[C@H]4CCC[C@H](O)C4)c(-c4ccn(C(F)F)n4)cn3)n2)cn1 [Example 21, (1S,3S)-3-((2-((2-(1-(Cyclopropylsulfonyl)-1H-pyrazol-4-yl)pyrimidin-4-yl)amino)-5-(1-(difluoromethyl)-1H-pyrazol-3-yl)pyridin-4-yl)amino)cyclohexan-1-ol] | 8.9 | 1.3 | 0.9 | 0.7 | 5010 | 0.9 | 0.3 | 0.2 | 0.3 | 5.4 |  |  |  | 
O=S(=O)(C1CC1)n1cc(-c2nccc(Nc3cc(NC[C@H]4CC[C@H](CO)CC4)c(-c4ccn(C(F)F)n4)cn3)n2)cn1 [Example 22, ((1r,4r)-4-(((2-((2-(1-(Cyclopropylsulfonyl)-1H-pyrazol-4-yl)pyrimidin-4-yl)amino)-5-(1-(difluoromethyl)-1H-pyrazol-3-yl)pyridin-4-yl)amino)methyl)cyclohexyl)methanol] | 21.5 | 1.1 | 1.2 | 2.1 | > 10000 | 4.4 | 0.9 | 0.4 |  | 22.4 |  |  |  | 
O=S(=O)(C1CC1)n1cc(-c2nccc(Nc3cc(N[C@H]4CC[C@@H](NCC(F)F)CC4)c(-c4ccn(C(F)F)n4)cn3)n2)cn1 [Example 23, N^2-(2-(1-(Cyclopropylsulfonyl)-1H-pyrazol-4-yl)pyrimidin-4-yl)-N^4-((1s,4s)-4-((2,2-difluoroethyl)amino)cyclohexyl)-5-(1-(difluoromethyl)-1H-pyrazol-3-yl)pyridine-2,4-diamine] | 7.4 | 1.3 | 1 | 0.9 | > 10000 | 1.8 | 0.7 | 0.4 | 0.8 | 6.9 |  |  |  | 
CNC(=O)[C@H]1CC[C@@H](Nc2cc(Nc3ccnc(-c4cnn(S(=O)(=O)C5CC5)c4)n3)ncc2-c2ccn(C(F)F)n2)CC1 [Example 24, (1s,4s)-4-((2-((2-(1-(Cyclopropylsulfonyl)-1H-pyrazol-4-yl)pyrimidin-4-yl)amino)-5-(1-(difluoromethyl)-1H-pyrazol-3-yl)pyridin-4-yl)amino)-N-methylcyclohexane-1-carboxamide] | 14.3 | 0.5 | 0.3 | 0.8 | > 10000 | 2 | 0.3 | 0.2 | 0.7 | 6.9 |  |  |  | 
CN(C)[C@H]1CC[C@H](CNc2cc(Nc3ccnc(-c4cnn(S(=O)(=O)C5CC5)c4)n3)ncc2-c2ccn(C(F)F)n2)CC1 [Example 25, N^2-(2-(1-(Cyclopropylsulfonyl)-1H-pyrazol-4-yl)pyrimidin-4-yl)-5-(1-(difluoromethyl)-1H-pyrazol-3-yl)-N^4-(((1r,4r)-4-(dimethylamino)cyclohexyl)methyl)pyridine-2,4-diamine] |  |  |  |  |  | 0.3 | 0.1 | 0.02 | 0.2 | 2.7 | 0.1 | 0.1 | 0.3 | 2050
O=S(=O)(C1CC1)n1cc(-c2nccc(Nc3cc(NCC4CC5(CNC5)C4)c(-c4ccn(C(F)F)n4)cn3)n2)cn1 [Example 26, N^4-((2-Azaspiro[3.3]heptan-6-yl)methyl)-N^2-(2-(1-(cyclopropylsulfonyl)-1H-pyrazol-4-yl)pyrimidin-4-yl)-5-(1-(difluoromethyl)-1H-pyrazol-3-yl)pyridine-2,4-diamine] | 26.5 | 0.2 | 0.3 | 1.8 | 3740 | 2.3 | 0.1 | 0.1 | 1.3 | 6.7 |  |  |  | 
O=S(=O)(C1CC1)n1cc(-c2nccc(Nc3cc(NC4CCC5(CC4)CNC5)c(-c4ccn(C(F)F)n4)cn3)n2)cn1 [Example 27, N^2-(2-(1-(Cyclopropylsulfonyl)-1H-pyrazol-4-yl)pyrimidin-4-yl)-5-(1-(difluoromethyl)-1H-pyrazol-3-yl)-N^4-(2-azaspiro[3.5]nonan-7-yl)pyridine-2,4-diamine] | 2.2 | 0.6 | 0.4 | 0.3 | 162 | 0.5 | 0.7 | 0.2 | 0.2 | 0.7 |  |  |  | 
O=S(=O)(C1CC1)n1cc(-c2nccc(Nc3cc(NC4CCCCC4O)c(-c4ccn(C(F)F)n4)cn3)n2)cn1 (stereo not shown) [Example 28, 2-((2-((2-(1-(Cyclopropylsulfonyl)-1H-pyrazol-4-yl)pyrimidin-4-yl)amino)-5-(1-(difluoromethyl)-1H-pyrazol-3-yl)pyridin-4-yl)amino)cyclohexan-1-ol] | 598 | 1.1 | 5.5 | 62.7 | > 10000 | 21.8 | 0.9 | 0.8 | 95.7 | 241 |  |  |  | 
O=S(=O)(C1CC1)n1cc(-c2nccc(Nc3cc(NC4CCCC4O)c(-c4ccn(C(F)F)n4)cn3)n2)cn1 (stereo not shown) [Example 29, 2-((2-((2-(1-(Cyclopropylsulfonyl)-1H-pyrazol-4-yl)pyrimidin-4-yl)amino)-5-(1-(difluoromethyl)-1H-pyrazol-3-yl)pyridin-4-yl)amino)cyclopentan-1-ol] | 590 | 2.4 | 7.7 | 77.1 | > 10000 | 26.2 | 1.1 | 1 | 89.9 | 218 |  |  |  | 
